Measurements as given in US20210115087A1, “CYCLIC PEPTIDE INHIBITORS OF HEDGEHOG PROTEINS” (University of Rochester, priority 2016, published 2021).
*1 amine or outer side, *2 acyl side, *3 side chain or, on linkers, in order; H or OH if unused. Where a SMILES comes first, the peptide text is derived from it. Bridges are numbered along the chain shown (N, C = ends). CH2CH2 = C(C[*:2])[*:1]

How the values were obtained:
NIH-3T3 cells = experiment: Cell morphology, growth behavior and titer in the presence of the peptide; assay type: cell-based, mouse; conditions: highest concentration range applied
[1] = tested on: Shh-mediated Hedgehog pathway signaling in NIH3T3 cells; experiment: Gli-reporter dual luciferase assay in Shh-N-stimulated NIH-3T3 cells; assay type: cell-based, mouse; conditions: 4 nM Shh-N, 24 hours; read-out: half-maximal inhibitory concentration (IC50), suppression of luminescence signal
From the text: The ability of the compounds provided herein to inhibit ligand-induced activation of the Hedgehog pathway in a cell can be assessed by means of a cell based assay. In an exemplary procedure, a suitable reporter plasmid is introduced in a Hedgehog responsive mammalian cell. Typically, the reporter plasmid contains a reporter gene encoding (e.g., a gene encoding for firefly luciferase) under a Gli-controlled promoter, thereby providing a reporter gene that is responsive to the activity of the Gli transcription factors. […] The reporter cells are incubated with the Hedgehog protein in the presence and in the absence of the cyclic peptide. The extent of Hedgehog pathway suppression can be determined based on relative activity of the luciferase reporter enzyme, which in turn can be determined by measuring the luminescence signal after addition of a luminogenic substrate of the luciferase enzyme.
To this end, we utilized a cell-based luciferase reporter assay, (Chen, Taipale et al. 2002) in which mouse embryo fibroblasts (NIH3T3) are transfected with vectors encoding for a Firefly luciferase (FF) gene under a Gli-controlled promoter and a Renilla luciferase (Ren) gene under a constitutive promoter. Hedgehog pathway suppression is measured based on the decrease in Firefly/Renilla luminescence ratio in the presence of the inhibitor. […] (Chen, Taipale et al. 2002)
Gli-reporter Assay. NIH-3T3 cells were passaged twice and then plated in 24-well culture dishes at 5×10^5 cells/well in DMEM containing 10% FBS and 1% penicillin/streptomycin. After 24 hours, the cells were transfected (TransIT-2020) with a mixture of a firefly luciferase reporter construct under the control of a Gli1 inducible promoter and a Renilla luciferase reporter construct under a constitutive promoter (40:1) (Cignal GLI Reporter Luciferase Kit, Qiagen). Cells were allowed to reach confluency, at which point the media was changed to Opti-MEM containing 1% FBS and added with 4 nM Shh-N(R&D Systems, Minneapolis, Minn.) in sterile PBS buffer. Synthetic HL2-lin and HL2-m5 were added at the same time at varying concentration (0.01-30 uM), and control cells were prepared by adding vehicle only (1% DMSO). Purmorphamine-treated cells were prepared by adding 5 μM purmorphamine to wells containing 10 μM HL2-m5. After growth for 24 hours at 37° C. in a humidified chamber, the cells were harvested and analyzed for Firefly and Renilla luciferase activity using a Tecan Spark-20 plate reader and a DLR kit (Promega) according to the manufacturer's instructions. Luminescence values were normalized to those of the Shh pathway activated control cells. Mean values and standard deviations were calculated from experiments performed at least in duplicate.

[2] = tested on: Hedgehog pathway target genes Gli, Gi2 and Ptch1; experiment: Gene transcription analyses by real-time PCR in Shh-N-stimulated NIH-3T3 cells; assay type: cell-based, mouse; conditions: HL2-m5 at 10 μM
Method: The ability of the compounds to suppress a transcriptional response associated with activation of the Hedgehog pathway can be assessed by incubating a Hedgehog responsive mammalian cell with the Hedgehog ligand in the presence and in the absence of the cyclic peptide inhibitor. The messenger RNA (mRNA) is extracted and a DNA the mRNA (cDNA) is produced via reverse transcription. The transcriptional level of canonical Hedgehog target genes such as Gli1 and Ptch1 is then determined via real-time PCR and/or via PCR followed by DNA gel electrophoresis. From the resulting dose-response curves, the activity of the cyclic peptide toward suppressing Hedgehog induced transcriptional activity can be established and quantitatively measured by means of IC50 values.
To further validate HL2-m5 as a Hedgehog pathway antagonist, the effect of this compound on the transcriptional activity of two canonical target genes of the pathway, Gi and Ptch1 (FIG. 1) was examined via real-time PCR. […]
Gene transcription analyses. […] The relative amounts of Gi, Gi2, and Ptch1 mRNA transcripts were determined by real-time PCR (Bio-Rad CFX thermocycler) using the primers listed in Table S1 and SYBR green TAQ reagent (Bio-Rad) according to the manufacture's protocol. […] Mean values and standard deviations were calculated from measurements performed in quadruplicate.

[3] = tested on: GST-Shh, GST-Ihh, and GST-Dhh; experiment: Hedgehog analog selectivity: relative binding at fixed peptide concentration; parameters: species or system human; conditions: peptide at fixed concentration of 0.5-1 μM, normalized to highest response
Method: FIG. 14. Hh analog selectivity for linear HHIP L2-derived peptide (HL2-pep) and representative cyclic peptide inhibitors. The data relative to the peptides were derived from direct binding experiments with immobilized Hedgehog proteins (i.e., GST-Shh, GST-Ihh, and GST-Dhh), biotinylated peptides (i.e., Biot-HL2-pep, Biot-HL2-m1, Biot-HL2-m2, Biot-HL2-m3, Biot-HL2-m4, Biot-HL2-m4), and HRP-conjugated streptavidin. The data relative to robotnikinin were derived from competition experiments ([…]+400 nM HL2-m5). For each compound, the response values were normalized to the highest binding response measured across the three Hedgehog analogs.
Hedgehog analog selectivity. KD values for FLAG-HL2-m5 binding to Ihh and Dhh were determined using the colorimetric immunoassay described earlier but using GST-Ihh and GST-Dhh-coated plates, respectively. The peptide relative binding affinity for the three isoforms of Hedgehog was determined using the same assay and peptide solutions at a fixed concentration of 0.5-1 μM. In this case, binding responses were subtracted against the blank (no peptide sample) and normalized to the highest value measured across the three Hh isoforms. Mean values and standard deviations were calculated from experiments performed at least in triplicate.

[4] = tested on: Hedgehog pathway activation in cells; conditions: similar cell-based assay; read-out: IC50, blocking Hedgehog pathway activation in cells; cited from earlier work
GST-Shh = molecular target: T1, GST-Shh (Homo sapiens, UniProt Q15465); experiment: Competition assay: inhibition of FLAG-HL2-m5 binding to GST-Shh; conditions: 10 μM robotnikinin and 400 nM FLAG-HL2-m5; read-out: % inhibition of FLAG-HL2-m5 binding in the presence of GST-Shh
T1 construct: poly-histidine (N); made in house; host or cells: E. coli BL21(DE3), vector pET42b
Method: (§1) The immunoassay described above can be adapted to serve as a competition assay. In this case, a fixed amount of the labeled peptide is incubated with the immobilized Hedgehog protein in the presence of a test compound (e.g., another cyclic peptide or a small-molecule compound). The test molecule competes with the cyclic peptide for binding to the immobilized Hedgehog protein. The amount of bound peptide is quantified using the colorimetric assay described above and the extent of inhibition in the presence of the test compound is compared to that in the absence of it. From the resulting dose-response curves, a IC50 value for the test compound can be obtained. Using this assay and the cyclic compounds provided herein, the Hedgehog inhibitory activity of a test molecule can be evaluated. […]
(§2) While Shh is the most abundant isoform among Hedgehog proteins, paracrine/autocrine Hedgehog signaling in normal and cancer cells is also mediated by the Indian (Ihh) and Desert (Dhh) isoforms. […] Since the Hh isoform selectivity of robotnikinin had not previously investigated, this property was examined by means of a competition assay, whereby inhibition of FLAG-HL2-m5 binding to plate-immobilized GST-Shh, GST-Ihh, or GST-Dhh is measured via the HRP-conjugated anti-FLAG antibody.
(§3) Competition assay. […] Mean values and standard deviations were calculated from experiments performed in triplicate.

GST-Ihh = molecular target: T2, GST-Ihh (Homo sapiens, UniProt Q14623); experiment: Competition assay: inhibition of FLAG-HL2-m5 binding to GST-Ihh; conditions: 10 μM robotnikinin and 400 nM FLAG-HL2-m5
T2 construct: poly-histidine (N); made in house; host or cells: E. coli BL21(DE3), vector pET42b
Method: as §1, §2, §3

GST-Dhh = molecular target: T3, GST-Dhh (Homo sapiens, UniProt O43323); experiment: Competition assay: inhibition of FLAG-HL2-m5 binding to GST-Dhh; conditions: 10 μM robotnikinin and 400 nM FLAG-HL2-m5
T3 construct: poly-histidine (N); made in house; host or cells: E. coli BL21(DE3), vector pET42b
Method: as §1, §2, §3

T2 sequence (Q14623 28-411): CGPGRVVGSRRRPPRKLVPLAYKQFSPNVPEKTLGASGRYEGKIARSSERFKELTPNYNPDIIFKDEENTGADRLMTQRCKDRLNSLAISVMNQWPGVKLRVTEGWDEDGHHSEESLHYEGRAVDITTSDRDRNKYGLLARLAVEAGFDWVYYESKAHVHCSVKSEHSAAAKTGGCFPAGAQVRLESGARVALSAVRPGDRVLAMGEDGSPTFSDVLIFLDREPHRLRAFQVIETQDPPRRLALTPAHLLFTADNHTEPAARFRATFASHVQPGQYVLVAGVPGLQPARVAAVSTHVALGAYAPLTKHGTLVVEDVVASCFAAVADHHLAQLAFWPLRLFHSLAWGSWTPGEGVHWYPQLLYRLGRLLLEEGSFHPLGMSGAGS
T1 sequence (Q15465 24-462): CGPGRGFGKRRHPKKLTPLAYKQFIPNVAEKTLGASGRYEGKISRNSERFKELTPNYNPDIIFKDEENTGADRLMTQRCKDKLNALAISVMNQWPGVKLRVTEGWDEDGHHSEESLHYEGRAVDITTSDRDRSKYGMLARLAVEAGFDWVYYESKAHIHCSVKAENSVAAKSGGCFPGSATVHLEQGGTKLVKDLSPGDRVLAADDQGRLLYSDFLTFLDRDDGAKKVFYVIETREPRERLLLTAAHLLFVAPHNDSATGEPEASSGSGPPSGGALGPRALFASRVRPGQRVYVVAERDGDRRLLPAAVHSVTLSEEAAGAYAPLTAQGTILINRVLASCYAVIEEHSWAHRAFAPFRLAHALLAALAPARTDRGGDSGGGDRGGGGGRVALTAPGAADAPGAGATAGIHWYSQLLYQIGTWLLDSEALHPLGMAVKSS

SMILES | cytotoxicity (cell morphology, growth behavior and titer) (NIH-3T3 cells) | IC50 [1] | mRNA level for the transcription factor Gli2 ([2]; ShhN-stimulated cells) | reduction of the mRNA levels of Gi and Ptch1 ([2]; relative to compound-untreated ShhN-stimulated cells) | Hedgehog analog selectivity profile [3] | IC50 [4] | inhibition at 10 µM (GST-Shh) | affinity toward Ihh relative to Shh (GST-Ihh) | affinity toward Dhh relative to Shh (GST-Dhh)
CSCC[C@@H]1NC(=O)[C@H](C)NC(=O)[C@H](CCC(=O)O)NC(=O)[C@@H](NC(=O)[C@H](Cc2c[nH]c3ccccc23)NC(=O)[C@H](CO)NC(=O)[C@H](CC(C)C)NC(=O)[C@@H](NC(C)=O)[C@@H](C)O)Cc2ccc(cc2)OCCSC[C@@H](C(=O)N[C@H](C(=O)N[C@@H](CC(=O)O)C(N)=O)[C@@H](C)O)NC(=O)[C@H](CCSC)NC(=O)[C@H](CC(=O)O)NC1=O [HL2-m5] (Ac-TLSWYEAMDMCTD-NH2; linker 5-11 via CH2CH2) | lack of cytotoxicity | 0.25 µM | suppresses | 75-85% | nearly identical activity toward Shh and Ihh |  |  |  | 
O=C(C[C@@H]1C/C=C/CCC(=O)O[C@H](c2ccccc2)CNC1=O)NCc1ccc(Cl)cc1 [robotnikinin] |  |  |  |  |  | ~15 µM | 34% | significantly lower affinity | significantly lower affinity
